Data published in patent US11613528B2, “Small molecule inhibitors of shared epitope-calreticulin interactions and methods of use” (The Regents of the University of Michigan, priority 2017, dated 2023).
“Also recorded” adds a separate entry of the source.

Assays:
[1] = system: RAW 264.7 cells; experiment: in vitro osteoclast (OC) differentiation assay; format: cell-based, mouse
Procedure: OC differentiation was determined at day 5.
RAW 264.7 cells were cultured in OC-differentiating conditions in the presence or absence of the racemic mix (left) of HL840, the S-enantiomer (middle), or the R-enantiomer (right) at different concentrations, and their inhibitory effect on OC differentiation was determined at day 5.
To differentiate osteoclast (OC) from RAW 264.7 mouse macrophages, cells were cultured in the same way (2×10^4 per well), except that RANKL was added at a concentration of 20 ng/ml, for 5-6 days in the presence or absence of various compounds at different concentrations. To quantify the number of OCs, cultures were fixed and stained for tartrate-resistant acid phosphatase (TRAP) activity using an acid phosphatase kit (Kamiya Biomedical Company, Seattle, Wash.) according to the manufacturer's instructions. TRAP-positive multinucleated OCs (>3 nuclei) were counted using a tissue culture inverted microscope. All experiments were performed in triplicates and repeated 4 (C & D, n=12) or 3 (E-L; n=9) times. Percent inhibition of OC formation relative to cultures with PBS were calculated and presented as dose-response curves. IC50 values were calculated using the GraphPad-Prism software.

[2] = oral availability in vivo (oral gavage, serum levels); design: species or system DBA/1 mice
[3] = system: mice with CIA; experiment: collagen induced arthritis (CIA) animal model; format: in vivo, DBA/1 mice; settings: oral, doses as low as 1.25 μg/Kg body weight twice weekly
Procedure: Arthritis incidence was recorded.
2-tailed Student t-test; **, p<0.005.
Specifically, experiments were conducted with an animal model of collagen induced arthritis (CIA).

[4] = permeability through Caco-2 cell layers; format: in vitro ADME; settings: human
[5] = system: SE-CRT interactions; experiment: inhibition of SE-CRT interactions; format: binding
[6] = system: SKG mice; experiment: pre-clinical model of RA in SKG mice; format: in vivo

IC50 ([1]; Mus musculus, RAW264.7, 120 h, RAW 264.7 cells in OC-differentiating conditions, OC differentiation at day 5, read-out: anti-osteoclast (OC) activity IC50)	Papp A→B [4]	SMILES	oral availability in vivo [2]	arthritis severity [3]	bone destruction (radiologic bone damage) [3]	disease development (arthritis incidence) [3]	inhibition of SE-CRT interactions [5]	therapeutic effects [6]	enantiomer-specific activity (e.g., inhibition of SE-CRT interaction and signaling) of racemic HL840 ([1]; inhibitory effect on OC differentiation at day 5, FIG. 3)
0.0199 nM	5.6 ×10⁻⁶ cm/s	Cn1cc(/C=C/C(=O)N2CCC[C@@H](Cn3cc(CN)nn3)C2)cn1 (racemic) [HL840, (R,E)-(1-((1-(3-(1-methyl-1H-pyrazol-4-yl)acryloyl)piperidin-3-yl)methyl)-1H-1,2,3-triazol-4-yl)methanaminium]	moderately orally available; also recorded: orally available in vivo	decreased arthritis severity	prevented bone destruction	strongly inhibited disease development	potent, competitive inhibition	Significant therapeutic effects	–
–	–	Cn1cc(/C=C/C(=O)N2CCC[C@@H](Cn3cc(CN)nn3)C2)cn1 (single isomer, unassigned) [(R)-enantiomer]	–	–	–	–	–	–	responsible for all activity
